Where a name gives a salt, the structure may show the parent alone. Where a SMILES comes first, the peptide text is derived from it. [ ]: non-standard residue; d: D form. The star is where a group is joined. ξ: configuration not given here. Tic = O=C(O)[C@@H]1Cc2ccccc2CN1; Abu = CC[C@H](N)C(=O)O; ξAbu = CCC(N)C(=O)O; NHBu = CCCCN*; NHPr = CCCN*
Molecular target: membrane-bound tripeptidylpeptidase II (Rattus norvegicus, UniProt Q64560)
Assay: Measurement of the activity of membrane-bound tripeptidylpeptidase (release of Amc from A-AP-Amc, fluorimetry)
Conditions: Ki, apparent dissociation constant calculated from the 50% inhibitory concentration and the KM of the substrate (23 μM); rat brain membranes, 50 μM A-AP-Amc

Chain of membrane-bound tripeptidylpeptidase II (Q64560 whole entry): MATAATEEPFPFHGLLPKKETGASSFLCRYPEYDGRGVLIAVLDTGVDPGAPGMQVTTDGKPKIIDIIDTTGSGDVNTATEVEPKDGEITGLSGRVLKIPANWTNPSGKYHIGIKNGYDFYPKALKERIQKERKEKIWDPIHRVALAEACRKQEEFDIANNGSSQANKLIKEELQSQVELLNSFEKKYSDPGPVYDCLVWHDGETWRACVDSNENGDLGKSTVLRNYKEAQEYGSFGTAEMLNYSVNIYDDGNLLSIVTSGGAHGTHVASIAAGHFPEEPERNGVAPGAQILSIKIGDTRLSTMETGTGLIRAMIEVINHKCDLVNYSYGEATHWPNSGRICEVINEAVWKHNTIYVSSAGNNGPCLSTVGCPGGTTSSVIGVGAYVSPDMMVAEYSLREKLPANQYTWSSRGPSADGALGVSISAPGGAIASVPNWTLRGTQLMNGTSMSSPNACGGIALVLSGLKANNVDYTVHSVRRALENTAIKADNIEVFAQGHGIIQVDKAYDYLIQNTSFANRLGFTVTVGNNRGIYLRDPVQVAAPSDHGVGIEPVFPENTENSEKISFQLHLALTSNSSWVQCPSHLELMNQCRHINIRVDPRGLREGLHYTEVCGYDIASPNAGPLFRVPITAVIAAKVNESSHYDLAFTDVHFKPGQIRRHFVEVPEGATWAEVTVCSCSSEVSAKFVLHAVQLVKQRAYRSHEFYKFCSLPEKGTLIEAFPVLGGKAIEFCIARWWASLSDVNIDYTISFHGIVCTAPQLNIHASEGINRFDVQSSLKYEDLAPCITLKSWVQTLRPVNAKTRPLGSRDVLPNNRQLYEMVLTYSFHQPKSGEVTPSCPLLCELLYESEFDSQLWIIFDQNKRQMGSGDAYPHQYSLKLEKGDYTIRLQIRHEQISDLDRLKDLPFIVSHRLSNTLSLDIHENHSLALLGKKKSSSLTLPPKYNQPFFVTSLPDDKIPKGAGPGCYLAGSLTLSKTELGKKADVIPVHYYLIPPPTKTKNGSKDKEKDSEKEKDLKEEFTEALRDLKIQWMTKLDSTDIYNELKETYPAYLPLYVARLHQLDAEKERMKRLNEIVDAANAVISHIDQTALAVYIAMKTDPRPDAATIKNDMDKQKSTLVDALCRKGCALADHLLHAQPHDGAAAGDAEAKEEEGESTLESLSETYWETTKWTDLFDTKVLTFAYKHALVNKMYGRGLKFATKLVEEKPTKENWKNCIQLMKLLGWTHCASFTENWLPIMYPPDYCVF

Going from `CCCCNC(=O)C1Cc2cc(OC)ccc2N1C(=O)[C@@H](N)CC` (mixture of isomers) [Example 18, 1-(2(S)-amino-butyryl)-2(R/S)-(5-methoxy)indolinecarboxylic Acid n-butylamide] to `CCCCNC(=O)C1Cc2cc(OC)ccc2N1C(=O)[C@H](C)N` (mixture of isomers) [Example 25, 1-(L-alanyl)-5-methoxyindoline-2(R/S)-carboxylic Acid Butylamide Oxalate], the Ki rises from 8 nM to 26 nM (3.2-fold). The first binds more tightly here.

First: CC[C@H](N)C(=O)N1CCC[C@H]1C(=O)NCC(C)C [Example 7, 1-(2(S)-amino-butyryl)-L-proline isobutylamide]
Second: CC[C@H](C)CNC(=O)[C@@H]1CCCN1C(=O)[C@@H](N)CC [Example 5, 1-(2(S)-aminobutyryl)-L-proline [2(S)methyl]butylamide]
The Ki of the first is 1.6-fold lower: 320 nM for the first, 500 nM for the second.

First: CCCCNC(=O)[C@@H]1CCCN1C(=O)[C@@H](N)C(C)C [Example 8, L-valyl-L-proline n-butylamide] (H-Val-Pro-NHBu)
Second: CCCCCCNC(=O)[C@@H]1CCCN1C(=O)[C@@H](N)C(C)C [Example 1, L-valyl-L-proline n-hexylamide]
The Ki of the first is 1.6-fold lower: 570 nM for the first, 900 nM for the second.

Compared with `CCCCNC(=O)C1C(C)c2ccccc2N1C(=O)C(N)CC` (single isomer, unassigned) [Example 30], `CCCCNC(=O)C1Cc2c(OC)cccc2N1C(=O)[C@@H](N)CC` (mixture of isomers) [Example 27, 1-(2(S)-aminobutyryl)-4-methoxyindoline-2(R/S)-carboxylic Acid Butylamide Oxalate] is 2.3-fold lower in Ki: 32 nM for the first, 14 nM for the second. The second binds more tightly here.

Compared with `CCCCNC(=O)C1C(C)c2ccccc2N1C(=O)C(N)CC` (single isomer, unassigned) [Example 29], `CCCCNC(=O)[C@@H]1Cc2ccccc2CN1C(=O)[C@@H](N)CC` [Example 13, 2-(2(S)-amino-butyryl)-1,2,3,4-tetrahydro-3(S)-isoquinolinecarboxylic Acid n-butylamide] (H-[Abu]-[Tic]-NHBu) is 15-fold lower in Ki: 593 nM for the first, 40 nM for the second.

Going from `CCCCCNC(=O)[C@@H]1CCCN1C(=O)[C@@H](N)CC` [Example 3, 1-(2(S)-aminobutyryl)-L-proline n-pentylamide] to `CCCCNC(=O)[C@@H]1CCCN1C(=O)[C@@H](N)CC` [Example 4, 1-(2(S)-amino-butyryl)-L-proline n-butylamide] (H-[Abu]-Pro-NHBu), the Ki falls from 270 nM to 100 nM (2.7-fold). The second binds more tightly here.

Compared with `CCCCNC(=O)C1Cc2cc(C)ccc2N1C(=O)[C@@H](N)CC` (mixture of isomers) [Example 35, 1-2(S)-aminobutyryl-5-methylindoline-2(R/S)-carboxylic Acid Butylamide Oxalate], `CCCCNC(=O)C1Cc2cc(F)ccc2N1C(=O)[C@@H](N)CC` (mixture of isomers) [Example 20, 1-(2(S)-aminobutyryl)-2(R/S)-(5-fluoro)indolinecarboxylic Acid N-butylamide] is 1.9-fold lower in Ki: 22.6 nM for the first, 12 nM for the second. The second binds more tightly here.

First: CCCCNC(=O)C1Cc2cc(O)ccc2N1C(=O)[C@@H](N)CC (mixture of isomers) [Example 34, 1-2(S)-aminobutyryl-5-hydroxyindoline-2(R/S)-carboxylic Acid Butylamide Oxalate]
Second: CCCCNC(=O)C1Cc2cc(OCc3ccccc3)ccc2N1C(=O)[C@@H](N)CC (mixture of isomers) [Example 21]
The Ki of the first is 96-fold lower: 10.4 nM for the first, 1000 nM for the second. The first binds more tightly here.

First: CC[C@H](N)C(=O)N1CCC[C@H]1C(=O)NCCCSC [Example 2, 1-(2(S)-amino-butyryl)-L-proline 3-(methylthio)propylamide]
Second: CCCNC(=O)[C@@H]1CCCN1C(=O)[C@@H](N)CC [Example 6, 1-(2(S)-amino-butyryl)-L-proline n-propylamide] (H-[Abu]-Pro-NHPr)
The Ki of the first is 3.8-fold higher: 300 nM for the first, 80 nM for the second. The second binds more tightly here.

Compound `CCC(N)C(=O)N1CCC[C@H]1C(N)=O` (stereo partly drawn) [2 (S)-aminobutyryl-L-prolineamide, reference compound] (H-[ξAbu]-Pro-NH2) has a Ki of 570 nM.

Source: patent US6403561B1, “Tripeptidylpeptidase inhibitors” (Institut National de la Sante et de la Recherche Medicale …, priority 1998, dated 2002)
